What was measured:
HT-29 cells = assay: Adhesion of E. cloacae to HT-29 cells grown in the presence of N-linked glycoprotein processing inhibitors; assay type: cell-based; details: for activation at 5 µg/mL: inhibitor 5 μg/ml; for activation at 25 µg/mL: inhibitor 25 μg/ml; for activation at 50 µg/mL: inhibitor 50 μg/ml; for activation at 100 µg/mL: inhibitor 100 μg/ml; for Adhesion (cpm): average of three sets of experiments; for change in the amount of radioactive bacteria bound: text summary of Table II; for activation at 10 µg/mL: inhibitor 10 μg/ml
Description: (§1) Bacterial adherence was measured as follows: confluent HT-29 cell monolayers, contained in 24 well plates, were washed two times with PBS. Various amounts of the labeled bacteria, all in the same final volume of buffer, were added to the monolayers and allowed to incubate at 37° C. for 1 hour, with intermittent agitation. At least three wells received each concentration of bacteria. At the end of the incubation, unbound bacteria were removed by aspiration, and the monolayers were washed at least 5 times with PBS. After this thorough washing, the HT-29 cells were released from each well with a trypsin-EDTA mixture and the cell suspension was placed in a scintillation vial. Each well was then washed with another 0.5 ml of water along with scraping with a plastic paddle to remove any firmly attached cells. This second wash was then added to the same vial that contained the first trypsin digest. Ten ml of scintillation fluid were added and radioactivity was determined as a measure of the number of bacteria bound.
HT-29 cells were transferred at low density to multiwell plates, and grown in McCoy's medium containing different concentrations of various processing inhibitors. Thus, one 24-well plate was divided into 4 sections, each with 6 wells having the following components: castanospermine at 0, 5, 10, 25, 50 and 100 μg/ml; deoxymannojirimycin at 0, 5, 25, 50, 100 and 200 μg/ml; kifunensine at 0, 2, 5, 10, 25 and 50 μg/ml; swainsonine at 0, 1, 5, 10, 25 and 50 μg/ml. HT-29 cells were allowed to grow to confluency over a period of 4 to 5 days. Once the cells reached confluency, the media was removed by aspiration and the monolayers were washed with PBS. Each well was then challenged with the same number of radioactive bacteria to determine the extent of bacterial adhesion, as described above in the adhesion assay.

Enterobacter cloacae = assay: microbe, parasite or virus in culture; assay type: cell-based; details: for inhibition of binding: even at 100 mM concentrations; for IC50: 1 h, read-out: 50% inhibition of binding
Description: as §1
A variety of simple sugars (D-mannose, D-galactose, D-fructose, L-fucose, D-GlcNAc, sialic acid) were tested at various concentrations to determine their ability to block the adhesion of Enterobacter cloacae to the HT-29 cells. In addition, p-nitrophenyl-α-D-mannoside and 4-methylumbelliferyl-α-D-mannoside and glycopeptides with various high-mannose or complex types of oligosaccharides were also tested as inhibitors. […] […] The plates were then incubated and harvested as described above in the adherence assay, and the amount of radioactivity bound to the cell monolayer was determined.

Escherichia coli = details: studies by Firon et al (8); cited from earlier work
35 kDa pili subunit = 35 kDa pili subunit (Enterobacter cloacae, UniProt Q9Z643); assay: Modified Western blot: labeling of pili adhesive subunit by α-mannosylated-biotinylated-albumin; assay type: binding; details: 50 mM sugar in incubation; FIG. 5
Description: Modified Western blot using an α-mannosylated-biotinylated-albumin, followed by an avidin-horseradish peroxidase conjugate and then visualization with 4-chloro-napthol according to the manufacturer's directions; D. Reaction system as in C, but incubated in the presence of 50 mM α-D-glucose; E. Reaction system as in C and D, but incubated in the presence of 50 mM α-D-mannose.
Thus, purified pili were subjected to 12% SDS-PAGE, and the resulting protein bands were transferred to nitrocellulose membranes. After washing the membranes to remove SDS, and incubating them with PBS containing 5% bovine serum albumin, they were incubated for 2 hours at room temperature with a mannosylated-albumin that contained a biotin tag. Some incubations also contained 50 mM D-mannose or 50 mM D-glucose.

[1] = Homo sapiens, HT-29, percent relative to the control, read-out: Increase in adhesion (%)
[2] = inhibitor 5 μg/ml in culture medium
[3] = inhibitor 25 μg/ml in culture medium
[4] = inhibitor 50 μg/ml in culture medium
[5] = inhibitor 100 μg/ml in culture medium
[6] = inhibitor 10 μg/ml in culture medium

Chain of 35 kDa pili subunit (Q9Z643 entry or part of it): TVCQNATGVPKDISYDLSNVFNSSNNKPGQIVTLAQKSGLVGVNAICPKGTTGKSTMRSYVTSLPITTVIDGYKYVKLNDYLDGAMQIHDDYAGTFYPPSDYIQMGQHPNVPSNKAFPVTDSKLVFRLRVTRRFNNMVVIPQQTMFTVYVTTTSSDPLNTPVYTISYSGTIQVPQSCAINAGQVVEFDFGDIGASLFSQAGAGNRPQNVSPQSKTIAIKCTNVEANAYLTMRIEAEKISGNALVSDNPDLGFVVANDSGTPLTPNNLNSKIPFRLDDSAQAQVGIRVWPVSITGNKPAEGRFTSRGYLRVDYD

With `OC[C@H]1NC[C@@H](O)[C@@H](O)[C@@H]1O` [Deoxymannojirimycin] the activation at 5 µg/mL (HT-29 cells; [1]) was 36%, the activation at 25 µg/mL (HT-29 cells; [1]) was 47% and the activation at 50 µg/mL (HT-29 cells; [1]) was 49%. For the same compound, the activation at 100 µg/mL (HT-29 cells; [1]) was 53%, the activation at 200 µg/mL (HT-29 cells; Homo sapiens, HT-29, inhibitor 200 μg/ml, percent relative to the control, read-out: Increase in adhesion (%)) was 50% and the “Adhesion (cpm)” value (HT-29 cells; [2]) was 18,630 cpm. For the same compound, the “Adhesion (cpm)” value (HT-29 cells; [3]) was 20,180 cpm, the “Adhesion (cpm)” value (HT-29 cells; [4]) was 20,500 cpm and the “Adhesion (cpm)” value (HT-29 cells; [5]) was 21,018 cpm. The “Adhesion (cpm)” value (HT-29 cells; inhibitor 200 μg/ml in culture medium) was 20,548 cpm.

In the case of `CC(=O)N[C@H]1C(O)O[C@H](CO)[C@H](O)[C@@H]1O` (some centres unmarked) [N-acetylgalactosamine], the inhibition of binding (Enterobacter cloacae) is reported as “did not inhibit binding”.

With `C[C@H](O)[C@@H](O)[C@@H](O)[C@H](O)C=O` [L-fucose] the inhibition of binding (Enterobacter cloacae) was “did not inhibit binding”.

With `CC(=O)N[C@H]1C(O)O[C@H](CO)[C@@H](O)[C@@H]1O` (some centres unmarked) [N-acetylglucosamine] the inhibition of binding (Enterobacter cloacae) was “did not inhibit binding”.

For `O=[N+]([O-])c1ccc(O[C@H]2O[C@H](CO)[C@@H](O)[C@H](O)[C@@H]2O)cc1` [p-nitrophenyl-α-D-mannoside], the “inhibitor of Escherichia coli binding to epithelial cells, relative effectiveness” value (Escherichia coli) is given as “considerably better as an inhibitor than was α-methylmannoside”, the reversal of binding (Enterobacter cloacae; 0.5 mM added to the monolayers after the bacteria had bound) is given as “reversed” and the IC50 (Enterobacter cloacae; Enterobacter cloacae) is given as 20 µM.

With `O[C@H]1[C@H](O)[C@@H](O)CN2CC[C@H](O)[C@H]12` [Castanospermine] the activation at 100 µg/mL (HT-29 cells; [1]) was 8%, the “Adhesion (cpm)” value (HT-29 cells; [2]) was 12,410 cpm and the “Adhesion (cpm)” value (HT-29 cells; [6]) was 13,787 cpm. The “Adhesion (cpm)” value (HT-29 cells; [3]) was 13,973 cpm, the “Adhesion (cpm)” value (HT-29 cells; [4]) was 13,626 cpm and the “Adhesion (cpm)” value (HT-29 cells; [5]) was 14,943 cpm. The “change in the amount of radioactive bacteria bound” value (HT-29 cells) was “did not cause any significant change”.

Work on `O=C1N[C@@H]2[C@@H](O)[C@@H](O)[C@H](O)[C@@H](CO)N2C1=O` [Kifunensine] yielded an activation at 2 µg/mL (HT-29 cells; Homo sapiens, HT-29, inhibitor 2 μg/ml, percent relative to the control, read-out: Increase in adhesion (%)) of 42%, an activation at 5 µg/mL (HT-29 cells; [1]) of 50% and an activation at 10 µg/mL (HT-29 cells; [1]) of 43%. The activation at 25 µg/mL (HT-29 cells; [1]) was 52%, the activation at 50 µg/mL (HT-29 cells; [1]) was 75% and the “Adhesion (cpm)” value (HT-29 cells; inhibitor 2 μg/ml in culture medium) was 19,033 cpm. For the same compound, the “Adhesion (cpm)” value (HT-29 cells; [2]) was 20,161 cpm, the “Adhesion (cpm)” value (HT-29 cells; [6]) was 19,257 cpm and the “Adhesion (cpm)” value (HT-29 cells; [3]) was 20,414 cpm. For the same compound, the “Adhesion (cpm)” value (HT-29 cells; [4]) was 23,442 cpm.

In the case of `Cc1cc(=O)oc2cc(O[C@H]3O[C@H](CO)[C@@H](O)[C@H](O)[C@@H]3O)ccc12` [4-methylumbilliferyl-α-D-mannoside, 4-methylumbelliferyl-α-D-mannoside], the “inhibitor of Escherichia coli binding to epithelial cells, relative effectiveness” value (Escherichia coli) is listed as “even better then the p-nitrophenyl-derivative”, the IC50 (Enterobacter cloacae; Enterobacter cloacae) is listed as 10 µM and the inhibition at 100 µM (Enterobacter cloacae; Enterobacter cloacae, read-out: inhibition of binding) is listed as 80 to 90%.

With `CC(=O)N[C@H]1[C@H]([C@H](O)[C@H](O)CO)OC(O)(C(=O)O)C[C@@H]1O` (some centres unmarked) [sialic acid] the inhibition of binding (Enterobacter cloacae) was “did not inhibit binding”.

`O[C@H]1[C@H]2[C@H](O)CCCN2C[C@H]1O` [Swainsonine] gave an activation at 1 µg/mL (HT-29 cells; Homo sapiens, HT-29, inhibitor 1 μg/ml, percent relative to the control, read-out: Increase in adhesion (%)) of 10%, an activation at 5 µg/mL (HT-29 cells; [1]) of 5% and an activation at 10 µg/mL (HT-29 cells; [1]) of 11%. The activation at 50 µg/mL (HT-29 cells; [1]) was 8%, the “Adhesion (cpm)” value (HT-29 cells; inhibitor 1 μg/ml in culture medium) was 15,219 cpm and the “Adhesion (cpm)” value (HT-29 cells; [2]) was 14,577 cpm. The “Adhesion (cpm)” value (HT-29 cells; [6]) was 15,275 cpm, the “Adhesion (cpm)” value (HT-29 cells; [3]) was 13,857 cpm and the “Adhesion (cpm)” value (HT-29 cells; [4]) was 14,965 cpm. The “change in the amount of radioactive bacteria bound” value (HT-29 cells) was “did not cause any change”.

With `O=C[C@H](O)[C@@H](O)[C@@H](O)[C@H](O)CO` [D-galactose] the inhibition of binding (Enterobacter cloacae) was “did not inhibit binding”.

With `OC[C@H]1OC(O)[C@@H](O)[C@@H](O)[C@@H]1O` (stereo partly drawn) [D-mannose] the “labeling of the 35 kDa band by mannosylated-biotinylated-albumin” value (35 kDa pili subunit) was “inhibited” and the IC50 (Enterobacter cloacae; Enterobacter cloacae) was 500 µM.

For `OC[C@H]1OC(O)[C@H](O)[C@@H](O)[C@@H]1O` (stereo partly drawn) [D-glucose], the inhibition of binding (Enterobacter cloacae) was “did not inhibit binding”.

With `CO[C@H]1O[C@H](CO)[C@@H](O)[C@H](O)[C@@H]1O` [α-methylmannoside] the reversal of binding (Enterobacter cloacae; 5 mM added to the monolayers after the bacteria had bound) was “reversed” and the IC50 (Enterobacter cloacae; Enterobacter cloacae) was 150 µM.

— patent US5939279A, “Inhibition of bacterial binding by high-mannose oligosaccharides” (priority 1997, dated 1999)
